Reference: PMC7391726, “Fatty acid mimetic PBI-4547 restores metabolic homeostasis via GPR84 in mice with non-alcoholic fatty liver disease” (Scientific Reports, 2020)

Columns and labels:
PPARδ [1] = molecular target: T1, PPARδ (Homo sapiens, UniProt Q03181); assay: Cell-based GAL4 transactivation assay in HEK293 cells, PPARδ LBD; details: compared to the control agonist GW0742
T1 construct: PPARδ (S139–Y440); expressed in transfected cells; host or cells: HEK293
T1 sequence (Q03181 139-441 limits assumed): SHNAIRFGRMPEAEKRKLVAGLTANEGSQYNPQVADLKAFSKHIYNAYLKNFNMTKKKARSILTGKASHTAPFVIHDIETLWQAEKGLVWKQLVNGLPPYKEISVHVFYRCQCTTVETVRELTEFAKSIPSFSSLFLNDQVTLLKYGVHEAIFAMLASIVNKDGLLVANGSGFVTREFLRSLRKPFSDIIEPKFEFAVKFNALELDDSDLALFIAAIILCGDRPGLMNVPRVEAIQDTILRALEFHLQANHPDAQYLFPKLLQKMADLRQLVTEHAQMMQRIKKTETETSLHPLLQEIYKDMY
Source text: To determine the transcriptional activity of PBI-4547, a cell-based GAL4 transactivation assay in HEK293 cells transfected with either PPARα, PPARδ, or PPARγ LBD was used. […] However, PBI-4547 only partially activated PPARγ transcriptional activity, with a relative maximal efficacy of 38% of the control agonist rosiglitazone.
Generation of the Gαi2, Gαq, and GPR40/β-arrestin-2 BRET biosensors have been described previously. A plasmid encoding the human GPR120-L (long isoform) cDNA was obtained from R&D Systems. GPR120-S (short isoform) was generated by replacing the BglII-BsgI fragment from GPR120-L by a gBlock gene fragment (Integrated DNA Technologies, Coralville, IA) lacking the DNA sequence corresponding to the extra 16 amino acids found in the third intracellular loop of the long form. The GPR120-GFP10 construct was generated by inserting PCR-amplified GPR120-S (without its stop codon) in place of GPR40 in the GPR40-GFP10 plasmid. […]
HEK293 cells were co-transfected with pGL4.35[luc2P/9XGAL4UAS/Hygro] and GAL4-PPAR-Rluc plasmids, and after 24 h of incubation were treated with compounds for 24 h. Luciferase activity was determined with the Dual Glo luciferase assay (Promega). Firefly luminescence was normalized to the constitutively expressed Renilla luminescence, and results expressed as fold induction of vehicle control.

PPARδ [2] = molecular target: T2, PPARδ (Homo sapiens, UniProt Q03181); assay: LanthaScreen TR-FRET competitive binding assay, PPARδ LBD; details: Cheng-Prusoff; read-out: Ki inhibition constant, PPARδ LBD
T2 construct: glutathione S-transferase (GST)-tagged human PPAR-LBD; purchased Fisher Scientific
T2 sequence (Q03181 211-439 limits assumed): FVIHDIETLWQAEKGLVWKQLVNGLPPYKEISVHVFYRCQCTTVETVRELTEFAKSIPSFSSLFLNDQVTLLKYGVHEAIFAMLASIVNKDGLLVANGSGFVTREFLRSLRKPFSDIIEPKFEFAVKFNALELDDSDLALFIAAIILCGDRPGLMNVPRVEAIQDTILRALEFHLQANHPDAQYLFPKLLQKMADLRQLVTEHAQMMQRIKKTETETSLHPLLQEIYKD
Source text: The peroxisome proliferator-activated receptors (PPARs), PPARα, PPARδ, and PPARγ are ligand-dependent transcription factors regulated by FAs, including MCFAs, which control expression of several key metabolism-associated genes. We thus characterized the binding and transcriptional activity of PBI-4547 to these receptors. A LanthaScreen TR-FRET competitive binding assay was used to determine the binding affinity of PBI-4547 in comparison to the full control agonists GW7647 (PPARα), GW0742 (PPARδ), and rosiglitazone (PPARγ).
The LanthaScreen time-resolved fluorescence resonance energy transfer (TR-FRET) PPARα, PPARδ and PPARγ competitive binding assay (Fisher Scientific) was performed according to the manufacturer’s protocol. […] The FRET signal was measured using an Infinite M1000 microplate reader by excitation at 332 nm and emission at 520 nm for fluorescein and 490 nm for terbium. Competitive ligand binding to PPAR is detected by a test compound’s ability to displace the Fluormone pan-PPAR Green from the LBD, which results in a decrease of the 520 nm/490 nm TR-FRET ratio. The inhibition constant (Ki) of the competitor ligand was calculated by applying the Cheng-Prusoff equation.

- PPARδ transcriptional activity (PPARδ [1]): very weak
- Ki (PPARδ [2]): 3.16 µM
SMILES: CCCCCc1cc(CCCCC)cc(CC(=O)[O-])c1.[Na+] [PBI-4547, 2-[3,5-dipentylphenyl]acetate sodium salt]
